Data taken from publication PMC7193532 (Acta Crystallographica. Section D, Structural Biology, 2020).
*1 amine or outer side, *2 acyl side, *3 side chain or, on linkers, in order; H or OH if unused. Where a SMILES comes first, the peptide text is derived from it. Bridges are numbered along the chain shown (N, C = ends). [ ]: non-standard residue; d: D form. The star is where a group is joined. ξ: configuration not given here. Phe(3R-OH) = O=C([C@@H](N[*:1])[C@H](O[*:3])c1ccccc1)[*:2]; NMeTrp(4-OMe) = CN[CH](Cc1c[nH]c2cccc(OC)c12)C(=O)O; X1 = O=C(C(N[*:1])C(O)c1ccccc1)[*:2]; NMeT = CN[CH](C(=O)O)[CH](C)O; NMeI = CC[CH](C)[CH](NC)C(=O)O; ξNMe2Val = CC(C)C(C(=O)*)N(C)C; NMeL = CN[CH](CC(C)C)C(=O)O; NMeV = CN[CH](C(=O)O)C(C)C

Key:
Type in all cases: binding
[1] = target: ClpC1-FL K85A (Mycobacterium tuberculosis, UniProt P9WPC9, K85A)
[2] = target: ClpC1-NTD MAFER (Mycobacterium tuberculosis, UniProt P9WPC9); details: relative to wild type
[3] = target: ClpC1-NTD AAFER (Mycobacterium tuberculosis, UniProt P9WPC9)
[4] = target: ClpC1-NTD MVFER (Mycobacterium tuberculosis, UniProt P9WPC9); details: relative to wild type
[5] = target: ClpC1-FL L92S/L96P (Mycobacterium tuberculosis, UniProt P9WPC9, L92S/L96P)
[6] = target: ClpC1-NTD FER (Mycobacterium tuberculosis, UniProt P9WPC9); details: relative to wild type
[7] = target: ClpC1-FL Q17A (Mycobacterium tuberculosis, UniProt P9WPC9, Q17A)
[8] = target: ClpC1-FL V14A (Mycobacterium tuberculosis, UniProt P9WPC9, V14A)

Compound | reduction of binding affinity, K85A [1] | decrease of binding, insertion of Ala before Phe2 [2] [fold] | reduction of binding affinity, Met1Ala mutation and Ala insertion [3] [fold] | reduction of binding, insertion of Val before Phe2 [4] | binding to double mutant L92S/L96P (in words) [5] | reduction of binding affinity, deletion of Met1 [6] | reduction of binding, Q17A [7] | reduction of binding affinity, L92S/L96P [5] | reduction of binding affinity, V14A [8]
CCC(C)C(C(=O)NC1C(=O)N(C)C(C(C)O)C(=O)NC(C(C)C)C(=O)N(C)C(CC(C)C)C(=O)NC(C(C)C)C(=O)N(C)C(C(C)C)C(=O)N(C)C(Cc2c[nH]c3cccc(OC)c23)C(=O)NC(C(C)C)C(=O)NC(C(O)c2ccccc2)C(=O)NC(C(C)C)C(=O)OC1C)N(C)C(=O)C(NC(=O)C(C(C)C)N(C)C)C(C)C (centres unmarked) [ECU, ecumicin] (ξNMe2Val-V[NMeI]T[NMeT]V[NMeL]V[NMeV][NMeTrp(4-OMe)]V[X1]V; ester 3-C; configuration not given here) | ninefold | 72 | 68 | 82 fold | abolished binding | 62 fold | sevenfold |  | 
C/C=C/C[C@@H]1NC(=O)[C@H](CC(C)C)N(C)C(=O)[C@H](CC(C)C)NC(=O)[C@H](Cc2ccc(O)c([N+](=O)[O-])c2)NC(=O)[C@H](C)N2C(=O)[C@H](CC(C)C2O)N(C)C(=O)[C@H](Cc2cn(C(C)(C)C3CO3)c3ccccc23)NC1=O (some centres unmarked) [RUF-I, rufomycin I] | fivefold |  |  | sixfold |  | fivefold | 17 fold | threefold | eightfold
CN[C@H](C(=O)N[C@H](C(=O)N[C@@H]1C(=O)N(C)[C@@H]([C@@H](C)O)C(=O)N[C@@H](C(C)C)C(=O)N(C)[C@@H](CC(C)C)C(=O)N[C@@H](C(C)C)C(=O)N(C)[C@@H](C(C)C)C(=O)N(C)[C@@H](Cc2c[nH]c3cccc(OC)c23)C(=O)N[C@@H](C(C)C)C(=O)N[C@@H]([C@H](O)c2ccccc2)C(=O)N[C@@H](C(C)C)C(=O)O[C@@H]1C)C(C)C)C(C)C [OMS-A, ohmyungsamycin A] (H-[NMeV]VT[NMeT]V[NMeL]V[NMeV][NMeTrp(4-OMe)]V[Phe(3R-OH)]V; ester 3-C) |  |  |  |  | abolished binding |  |  |  | 
